Common to all, as to type: cell-based
Experiment [1] relates to canine peripheral blood mononuclear cells (cPBMCs). Put plainly: Cytokine production in canine PBMCs by ELISA (Example 2). The following applies: ± SD, 20 μM, 29 hours, ELISA, triplicate. As to the method: The imidazoquinolines were further screened for cytokine production in canine peripheral blood mononuclear cells (cPBMCs). […] TNFα and IL-12 were chosen as they are typically seen in a Th-1 cytokine response.
Peripheral blood from a healthy canine donor was obtained with appropriate informed consent of the owner and under approved institutional guidelines. Blood (8 mL per tube) was drawn via sterile venipuncture into a BD Vacutainer cell preparation tube containing sodium heparin (BD Biosciences). PBMCs were isolated within one hour following procurement by density gradient centrifugation according to the manufacturer protocol and resuspended to 2.22×10^6 cells/mL in sterile RPMI 1640 medium with L-glutamine (Gibco) supplemented with 100 U/mL penicillin, 100 μg/mL streptomycin (Corning) and 10% (v/v) heat-inactivated Fetalgro (RMBIO). Corning 3917, 96-well tissue culture treated plates were seeded with the PBMC suspension (180 μL/well), 20 μL of the serially diluted TLR agonists were added in triplicate to yield the desired concentrations in a 1% (v/v) DMSO cell suspension. Cells were incubated at 37° C. in 5% CO2 for 9 hours (FIGS. 3A-3D) or 29 hours (Table 2) after which supernatants were removed and frozen at −80° C. Cytokine secretion levels were measured by ELISA (Duoset, R&D Systems) according to the manufacturer protocol. Samples and standards (n=3) were thawed and plated onto a Maxisorp flat-bottom, 384-well plate (Thermo Scientific) using a BioTek Precision XS pipetting system. Cytokine concentrations were determined by a hyperbolic or four-parameter logistic non-linear regression of the recombinant standards and subsequent interpolation using Graphpad Prism 7.0.

The target in the next experiment is T1, hTLR8 (Homo sapiens, UniProt Q9NR97).
T1 construct: host or cells: HEK293 (HEK-Blue hTLR8)
T1 sequence (Q9NR97 27-1041): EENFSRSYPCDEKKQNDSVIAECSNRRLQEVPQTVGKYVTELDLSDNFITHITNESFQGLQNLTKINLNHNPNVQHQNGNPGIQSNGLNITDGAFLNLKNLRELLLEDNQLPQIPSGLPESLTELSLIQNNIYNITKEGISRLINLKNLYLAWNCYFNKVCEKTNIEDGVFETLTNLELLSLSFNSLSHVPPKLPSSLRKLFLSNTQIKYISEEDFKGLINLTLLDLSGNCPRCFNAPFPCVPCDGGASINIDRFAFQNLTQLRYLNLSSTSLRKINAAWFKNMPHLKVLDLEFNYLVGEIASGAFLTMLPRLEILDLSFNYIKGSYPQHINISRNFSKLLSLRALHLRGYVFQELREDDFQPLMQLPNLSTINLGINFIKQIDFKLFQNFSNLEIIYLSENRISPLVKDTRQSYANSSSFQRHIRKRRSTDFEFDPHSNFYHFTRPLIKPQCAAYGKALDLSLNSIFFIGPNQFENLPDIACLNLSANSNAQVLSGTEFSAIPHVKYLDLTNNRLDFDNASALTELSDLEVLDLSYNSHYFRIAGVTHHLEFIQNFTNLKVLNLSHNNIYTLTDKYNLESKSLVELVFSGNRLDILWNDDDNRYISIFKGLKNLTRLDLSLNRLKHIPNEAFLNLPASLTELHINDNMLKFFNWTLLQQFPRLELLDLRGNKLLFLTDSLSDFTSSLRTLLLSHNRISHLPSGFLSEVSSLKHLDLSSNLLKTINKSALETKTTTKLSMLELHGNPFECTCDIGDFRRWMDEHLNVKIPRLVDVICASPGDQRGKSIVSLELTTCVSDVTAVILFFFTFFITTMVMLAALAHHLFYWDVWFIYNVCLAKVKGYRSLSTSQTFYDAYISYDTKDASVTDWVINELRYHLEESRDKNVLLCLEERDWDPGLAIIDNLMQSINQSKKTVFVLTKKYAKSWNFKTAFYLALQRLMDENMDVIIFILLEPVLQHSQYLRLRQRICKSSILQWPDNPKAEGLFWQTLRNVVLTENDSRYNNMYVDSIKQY
Kind of experiment: SEAP reporter assay for hTLR-8 activity (HEK-Blue hTLR8 cells). The following applies: ± SD; hTLR8 transfected HEK-Blue cells, Null subtracted; three independent measurements; 12 hours; >100 = no activity observed at 100 μM; read-out: EC50 TLR8. As to the method: (§1) TLR activation induces NF-κB production and subsequent SEAP secretion, which is measured using HEK-Detection media (InvivoGen) containing a colorimetric substrate for SEAP (UV-Vis, 637 nm).
(§2) The experiments followed manufacturer protocol as follows: SEAP levels were measured via absorbance at 637 nm using HEK-Blue Detection cell culture medium (InvivoGen), which contains a SEAP-specific colorimetric substrate. Compound stock solutions were first diluted in sterile DMSO at a concentration of 10 mM. Lower concentrations were prepared by serial dilution of the initial 10 mM stock samples into sterile DMSO and these solutions (22 μL) were subsequently diluted into sterile H2O (198 μL) using a BioTek Precision XS pipetting system. HEK-Blue hTLR7, HEK-Blue hTLR8, Null 1−k, and Null 1 cell suspensions in sterile HEK-Blue Detection medium were prepared at a density of 220,000 cells per mL. Clear bottom, 96-well tissue culture treated plates (Corning) were seeded with hTLR7 and Null 1−k or hTLR8 and Null 1 cell suspensions (180 μL/well), after which 20 μL of the various sample concentrations in 10% v/v DMSO/H2O were added (20 μL) in quadruplicate wells to yield the desired testing concentration in 1% v/v DMSO cell suspension. Plates were incubated at 37° C. and 5% CO2 in the dark. Absorbance measurements were taken at 637 nm at 12 hours, 4 replicates per concentration point, per cell line (hTLR7, hTLR8, Null 1−k, Null 1). Three independent measurements on different days were performed for each analog.
(§3) Corresponding well absorbance values for each concentration tested were averaged with respect to days tested, and the average relative NF-κB induction (UV-Vis, 637 nm) of the null cell lines (Null 1-k or Null 1) were subtracted from the respective average TLR expressing cell line (hTLR7 or hTLR8) absorbance averages. […] The three independent, normalized averages for each analog were then pooled, and the data was fit using the Hill-Slope model (GraphPad Prism v7.0) using the non-linear fit from the [Agonist] vs. response—Variable Slope (four parameters) with a hill slope constrained to less than 3.
For orientation: In a reporter assay the amount or activity of a reporter protein is the signal.

In the next experiment the target is T2, hTLR7 (Homo sapiens, UniProt Q9NYK1).
T2 construct: host or cells: HEK293 (HEK-Blue hTLR7)
T2 sequence (Q9NYK1 27-1049): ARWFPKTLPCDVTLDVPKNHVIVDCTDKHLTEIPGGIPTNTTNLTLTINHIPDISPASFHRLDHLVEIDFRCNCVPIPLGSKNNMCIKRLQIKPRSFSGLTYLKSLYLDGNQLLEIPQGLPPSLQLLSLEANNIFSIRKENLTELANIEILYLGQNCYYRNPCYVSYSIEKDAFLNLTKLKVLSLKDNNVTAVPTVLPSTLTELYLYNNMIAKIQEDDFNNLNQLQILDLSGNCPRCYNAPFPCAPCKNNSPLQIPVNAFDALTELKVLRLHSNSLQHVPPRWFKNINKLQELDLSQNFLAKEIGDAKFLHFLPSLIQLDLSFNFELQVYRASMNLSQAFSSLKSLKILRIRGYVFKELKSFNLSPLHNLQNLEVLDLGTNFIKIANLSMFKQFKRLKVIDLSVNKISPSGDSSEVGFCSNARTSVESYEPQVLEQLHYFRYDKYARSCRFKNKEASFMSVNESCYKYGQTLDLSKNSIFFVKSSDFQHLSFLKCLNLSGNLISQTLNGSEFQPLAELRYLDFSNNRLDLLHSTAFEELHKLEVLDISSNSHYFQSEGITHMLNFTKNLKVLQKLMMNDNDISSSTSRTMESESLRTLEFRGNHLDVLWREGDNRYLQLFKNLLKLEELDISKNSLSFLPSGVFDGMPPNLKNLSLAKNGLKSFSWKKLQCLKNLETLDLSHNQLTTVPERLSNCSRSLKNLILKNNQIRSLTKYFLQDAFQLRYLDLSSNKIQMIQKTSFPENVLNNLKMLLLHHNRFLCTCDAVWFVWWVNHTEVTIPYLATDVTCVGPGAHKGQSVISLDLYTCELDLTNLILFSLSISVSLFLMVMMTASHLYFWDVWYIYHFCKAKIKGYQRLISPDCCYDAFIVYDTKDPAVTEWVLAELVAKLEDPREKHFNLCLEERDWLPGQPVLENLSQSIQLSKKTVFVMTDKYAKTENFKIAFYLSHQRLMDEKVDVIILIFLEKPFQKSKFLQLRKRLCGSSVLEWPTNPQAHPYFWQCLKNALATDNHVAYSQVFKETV
Kind of experiment: SEAP reporter assay for hTLR-7 activity (HEK-Blue hTLR7 cells). To be noted: ± SD; hTLR7 transfected HEK-Blue cells, Null subtracted; three independent measurements; 12 hours; read-out: EC50 TLR7. As to the method:
as §1, §2, §3

The structures appear in SMILES notation.

What is called EC50 is the concentration needed to bring the measured effect to its halfway point.

For `CCOCc1nc2c(N)nc3cc(Cl)ccc3c2n1CC(C)(C)O` [Compound 9, 4-Amino-7-chloro-2-(ethoxymethyl)-1-(2-hydroxy-2-methylpropyl)-1H-imidazo[4,5-c]quinoline], in experiment [1], the “Cytokine IFNg” value is recorded as 16 ± 2 pg/mL, the “Cytokine IL-2” value is on record as 76 ± 59 pg/mL, the “Cytokine IL-6” value came to 320 ± 76 pg/mL and the “Cytokine IL-10” value was determined as 12 ± 3 pg/mL. Also, in experiment [1], the “Cytokine IL-12” value is on record as 1900 ± 130 pg/mL and the “Cytokine TNFa” value is on record as 70 ± 8 pg/mL. Further, the EC50 at hTLR8 was 4.9 ± 0.6 µM. Moreover, the EC50 on hTLR7 was determined as 0.63 ± 0.03 µM.
As for `CCCCc1nc2c(N)nc3cc(C#N)ccc3c2n1CC(C)C` [Compound 10, 4-Amino-2-butyl-7-carbonitrile-1-(2-methylpropyl)-1H-imidazo[4,5-c]quinoline], in experiment [1], the “Cytokine IFNg” value is 13 ± 5 pg/mL, the “Cytokine IL-2” value stood at 60 ± 41 pg/mL, the “Cytokine IL-6” value turned out to be 350 ± 95 pg/mL and the “Cytokine IL-10” value stood at 37 ± 10 pg/mL. Also, in experiment [1], the “Cytokine IL-12” value is recorded as 920 ± 170 pg/mL and the “Cytokine TNFa” value amounted to 10 ± 1 pg/mL. Also, the EC50 at hTLR8 is > 100 µM. The EC50 at hTLR7 is 0.99 ± 0.4 µM.
For the molecule `CCOCc1nc2c(N)nc3cc(C#N)ccc3c2n1CC(C)C` [Compound 11, 4-Amino-7-carbonitrile-2-(ethoxymethyl)-1-(2-methylpropyl)-1H-imidazo[4,5-c]quinoline], in experiment [1], the “Cytokine IFNg” value is reported as 4 ± 3 pg/mL, the “Cytokine IL-2” value was 57 ± 14 pg/mL, the “Cytokine IL-6” value worked out at 71 ± 20 pg/mL and the “Cytokine IL-10” value was 6 ± 2 pg/mL. For the same molecule, in experiment [1], the “Cytokine IL-12” value amounted to 190 ± 62 pg/mL and the “Cytokine TNFa” value is recorded as 7 ± 1 pg/mL. The EC50 on hTLR8 was > 100 µM. Besides, the EC50 at hTLR7 amounted to 6.8 ± 0.7 µM.
Regarding `CCCCc1nc2c(N)nc3cc(C#N)ccc3c2n1CC(C)(C)O` [Compound 12, 4-Amino-2-butyl-7-carbonitrile-1-(2-hydroxy-2-methylpropyl)-1H-imidazo[4,5-c]quinoline], in experiment [1], the “Cytokine IFNg” value was determined as 12 ± 4 pg/mL, the “Cytokine IL-2” value is 45 ± 22 pg/mL, the “Cytokine IL-6” value is 290 ± 77 pg/mL and the “Cytokine IL-10” value was determined as 14 ± 3 pg/mL. In addition, in experiment [1], the “Cytokine IL-12” value stood at 418 ± 72 pg/mL and the “Cytokine TNFa” value was found to be 44 ± 10 pg/mL. The EC50 on hTLR8 is 3.9 ± 0.2 µM. Also, the EC50 on hTLR7 amounted to 0.79 ± 0.23 µM.
As to `CCOCc1nc2c(N)nc3cc(C#N)ccc3c2n1CC(C)(C)O` [Compound 13, 4-Amino-7-carbonitrile-2-(ethoxymethyl)-1-(2-hydroxy-2-methylpropyl)-1H-imidazo[4,5-c]quinoline], in experiment [1], the “Cytokine IFNg” value worked out at 0.2 ± 0.4 pg/mL, the “Cytokine IL-2” value is 46 ± 42 pg/mL, the “Cytokine IL-6” value is reported as 214 ± 69 pg/mL and the “Cytokine IL-10” value stood at 6 ± 3 pg/mL. Further, in experiment [1], the “Cytokine IL-12” value was 13 ± 3 pg/mL and the “Cytokine TNFa” value came out at 80 ± 20 pg/mL. On hTLR8, the EC50 was found to be 27 ± 6 µM. At hTLR7, the EC50 stood at 3.5 ± 0.7 µM.

The record behind these values is patent publication US12295970B2, “Imidazoquinoline compounds and prodrugs thereof” (UNIVERSITY OF KANSAS, priority 2019, dated 2025).
